Results reported in ChEMBL document CHEMBL1152593, “Furanocoumarins: novel topoisomerase I inhibitors from Ruta graveolens L” (Bioorg Med Chem, 2009).
Active and inactive are the calls of the source. The calls are words filed in the database; no cut-off is given here.

Key:
[1] = (§1) Inhibition of calf thymus DNA topoisomerase 1 assessed as pUC19 DNA relaxation by gel electrophoresis; design: species or system Bos taurus
Bos taurus [2] = organism: Bos taurus; test: as §1
Bos taurus [3] = organism: Bos taurus; test: Inhibition of calf thymus DNA topoisomerase 1 assessed as pUC19 DNA relaxation at 10 uM by gel electrophoresis
Bos taurus [4] = organism: Bos taurus; test: Inhibition of calf thymus DNA topoisomerase 1 assessed as pUC19 DNA relaxation at 40 uM by gel electrophoresis
Bos taurus [5] = organism: Bos taurus; test: Inhibition of calf thymus DNA topoisomerase 1 assessed as pUC19 DNA relaxation at 20 uM by gel electrophoresis

Row | SMILES | IC50 [1] [µM] | inhibition (Bos taurus [2]) | Activity (Bos taurus [3]) | inhibition (Bos taurus [4]) | inhibition (Bos taurus [5]) [%] | inhibition (Bos taurus [3])
1 | COc1c2ccoc2cc2oc(=O)ccc12 [BERGAPTEN] | 6.5 | Dose-dependent effect | Active |  |  | 
2 | COc1c2occc2cc2ccc(=O)oc12 [METHOXSALEN] | 28 | Dose-dependent effect |  | Active |  | 
3 | O=c1ccc2cc3ccoc3cc2o1 [PSORALEN] | 11 | Dose-dependent effect |  |  | 100 | inactive
